Measured values from patent US9757477B2, “Imaging brown adipose tissue with curcumin derivatives” (The General Hospital Corporation, priority 2013, dated 2017).

What was measured:
interscapular BAT [1] = test: Time course and dose optimization of probe signal in BAT area after i.v. injection; type: in vivo, mice
Experimental: Next the time course of CRANAD-2 and CRANAD-3 accumulation in BAT area was investigated. […] Similarly, the signal of CRANAD-3 reached the uptake peak around one hour, and then gradually washed out (FIG. 8c-d). Accumulation of CRANAD-2 and -3 in BAT was further confirmed with ex vivo histology of the dissected BAT slices, performed as follows. The dissected BAT was fixed with 4% formalin at 4° C. overnight, and then embedded into OCT. BAT tissue was cut into 7 micron thickness slices, washed with PBS buffer, and co-stained with DAPI (Vectra Shield, Vector Lab, Burlingame, Calif.). Images were acquired with fast exposure to capture the dye signal in the oil droplets. To outline cell membrane cell autofluorescence was captured with long exposure after image of the dye signal from oil droplets was already acquired. To further validate the capacity of CRANAD-29 for BAT labeling, ex vivo histological microscopic imaging with CRANAD-29 was conducted. […] Gold standard H&E staining also provided similar images (FIG. 10a). […] The injection dose of CRANAD-29 was optimized, and the fluorescence signal reached its plateau at 0.4 mg/kg (FIG. 11). In the following studies, 0.1 mg/kg dose was used.

[2] = test system: undifferentiated 3T3-L1 cells; test: Probe uptake in undifferentiated 3T3-L1 cells (IVIS imaging); type: cell-based
Experimental: (§1) To investigate the facilitated diffusion of CRANAD-2, the time courses of CRANAD-2 uptake in 3T3-L1 cells were compared before and after differentiation. Two-photon imaging for 3T3-L1 cells was performed as follows. Fibroblast 3T3-L1 cells were differentiated following the protocol provided by Zenbio, Inc. (protocol No. ZBM0009.02). Ten microliters of CRANAD-2 (250 μM in DMSO) was added to the differentiated cells (1.0 ml). Cells were imaged after 10 min of incubation. A 940 nm laser was first used to capture an image for CRANAD-2 in 570-620 nm channel (Prairie Two-photon microscope, Middleton, Wis.). Next, the laser was tuned to 750 nm to capture autofluorescence of the cells to outline cell morphology.
(§2) IVIS imaging of 3T3-L1 cells with CRANAD-2 was performed as follows. To a 6-well plate seeded with preadipocytes or differentiated adipocytes, a 10 μL solution of CRANAD-2 (250 μM in DMSO) was added. The plate was subjected to imaging using IVIS imaging system with Ex=605 nm, Em=660 nm before and after addition of CRANAD-2. For triglyceride competition, the same protocol for two-photon imaging was used. The images were acquired at 20 min after addition of CRANAD-2. Studies were performed in triplicate.
(§3) The uptake of CRANAD-29 in 3T3-L1 cells before and after differentiation was compared. IVIS imaging of 3T3-L1 cells with CRANAD-29 was performed as follows. To a 6-well plate seeded with preadipocytes or differentiated adipocytes, a 10 μL solution of CRANAD-29 (250 μM in DMSO) was added. The plate was subjected to imaging using IVIS imaging system with Ex=640 nm, Em=700 nm before and after addition of CRANAD-29. For triglyceride competition and Hexarelin inhibition, the similar protocol for CRANAD-2 imaging was used. The final concentration of hexarelin was 12.5 μM, and the images were acquired at 3 hours after addition of CRANAD-29 and triglyceride/Hexarelin. Studies were performed in triplicate.

interscapular BAT [3] = test: Re-testing of hits with stepwise dissection and NIR imaging; type: in vivo, mice
Experimental: Like protein/cell-based screening, hit re-testing experiments were conducted to validate the reliability of this approach. CRANAD-2, -3, LDS 722 and Rhodamine 640 were subjected to re-testing by repeating the above imaging procedure. Images were acquired one hour after probe injection.
Next, stepwise dissection and imaging were performed to track the source of the fluorescence contrast at the interscapular site. Skin and the thin WAT layer that covers BAT were first removed, and then BAT was dissected, and NIR images were captured at each step. […] The signal contribution from BAT (R(BAT)) was roughly estimated using the ratio of fluorescence signals acquired after (F(BAT)) and before (F(intact)) the first step dissection of skin and WAT.

[4] = test system: differentiated 3T3-L1 cells; test: Probe uptake in differentiated 3T3-L1 cells (IVIS and two-photon imaging, competition); type: cell-based; details: for uptake with triglyceride competition: triglyceride added with probe, two-photon microscopy and IVIS
Experimental: as §1
For triglyceride competition, stock solutions of CRANAD-2 (250 μM) and triglyceride (5 mM) in DMSO were prepared. Before imaging, 10 μl of the stock solution was added to the cells.
as §2, §3

interscapular BAT [5] = test: Monitoring interscapular BAT mass change in STZ-induced diabetic mice; type: in vivo, Balb/c mice
Experimental: Monitoring was performed as follows. Two-month old Balb/c mice (n=5) were injected with STZ (80 mg/kg) for 7 days. When blood glucose levels reached 250 mg/dL on two consecutive days, mice were subjected to NIR imaging with CRANAD-29. Before imaging, the fur around the interscapular area was removed. Images were acquired at pre-injection, as well as 2- and 4-hours after i.v. injection. After imaging, mice were sacrificed, BAT from both groups was dissected, and weighted, and the linear correlation was established between in vivo fluorescence signal and weight of the dissected BATs. The same imaging procedure was conducted with the control group injected with the same volume of saline for 7 days (n=5).

interscapular BAT [6] = test: Monitoring BAT activation under cold exposure; type: in vivo, balb/c mice; details: 4° C. cold exposure
Experimental: BAT could be activated under various conditions including cold exposure. In this report, whether CRANAD-29 could be used to monitor BAT activation under these conditions was investigated as follows. Two-month old balb/c mice (n=5) were placed in a 4° C. cold room for 2 hours before i.v. injection of CRANAD-29. Images were acquired at 1-, 2-, 4-hours after probe injection, and mice were placed in the cold room between imaging sessions. Control mice (n=5) were placed in a 25° C. room. Images were captured at the same time points after CRANAD-29 injection.

inguinal sWAT = test: Monitoring browning of subcutaneous WAT after CL 316,243 treatment; type: in vivo, C57BL6 mice; details: after 12 days CL 316,243 1.0 mg/kg i.p.
Experimental: Two-month old C57BL6 mice (n=5) were i.p. injected CL 316,243 (100 uL, 1.0 mg/kg) for 12 days, and the control mice (n=5) were i.p. injected with saline. On the 13th day, both groups were imaged after i.v. injection of CRANAD-29. Images were acquired at 1-, 2-, 4-hours after the probe injection. After the last imaging session, inguinal sWAT were dissected after scarification of the mice, and the dissected sWAT tissue was subjected to qPCR for UCP-1 expression and H&E staining

Structure (SMILES): CN(C)c1ccc(/C=C/C2=CC(=C/C=C3C=CC(=[N+](C)C)C=C3)/O[B-](F)(F)O2)cc1 [CRANAD-2]
- cleared by (interscapular BAT [1]; i.v. injection): ≤ 720 min
- signal detectable until (interscapular BAT [1]; i.v. injection): at least 180 min
- time of uptake peak in BAT area after injection (interscapular BAT [1]; i.v. injection): 120 min
- time to maximal uptake [2]: ≤ 1 min
- R(BAT), signal contribution from BAT, F(BAT)/F(intact) (interscapular BAT [3]; fluorescence after vs before dissection of skin and WAT, roughly estimated): about 0.26
- contrast among the re-tested dyes (interscapular BAT [3]; images one hour after probe injection): highest contrast
- fluorescence signal from BAT (before vs after BAT removal) (interscapular BAT [3]; stepwise dissection): able to label BAT
- selectivity for BAT (over WAT) (interscapular BAT [3]; stepwise dissection): low
- time to uptake plateau ([4]; differentiated 3T3-L1 cells): 15 min
- uptake within 1 minute, of the maximal ([4]; differentiated 3T3-L1 cells): 62%
- uptake with triglyceride competition [4]: significant decrease in uptake

Structure (SMILES): F[B-]1(F)OC(/C=C/c2cc3c4c(c2)CCCN4CCC3)=CC(/C=C/c2cc3c4c(c2)CCCN4CCC3)=[O+]1 [CRANAD-29]
- fluorescence signal from diabetic mice vs control group (interscapular BAT [5]; STZ 80 mg/kg for 7 days, CRANAD-29 i.v.): significantly lower
- correlation between BAT mass and fluorescence signal (interscapular BAT [5]; STZ-treated and normal animals): excellent direct correlation
- signal of cold-exposed animals vs control group (interscapular BAT [6]; 1 hour after probe injection): 1.65 fold
- signal of cold-exposed animals vs control group (interscapular BAT [6]; 2 hours after probe injection): 1.59 fold
- signal of cold-exposed animals vs control group (interscapular BAT [6]; 4 hours after probe injection): 1.53 fold
- injection dose at which fluorescence signal reached its plateau (interscapular BAT [1]; dose optimization): 0.4 mg/kg
- time at which uptake reached plateau after probe injection (interscapular BAT [1]; mouse, in vivo, iv): around 2 h
- uptake in undifferentiated cells over the time course [2]: no apparent uptake
- F(BAT)/F(intact) ratio compared with CRANAD-2 and -3 (interscapular BAT [3]; stepwise dissection): much higher
- selectivity for BAT (over WAT) (interscapular BAT [3]; stepwise dissection): excellent selectivity
- CRANAD-29 signal around inguinal subcutaneous WAT, treated vs control group (inguinal sWAT): significantly higher
- fluorescent signal from interscapular BAT area, treated vs control group (inguinal sWAT): higher fluorescent signal
- time to uptake plateau ([4]; differentiated 3T3-L1 cells): around 90 minute
- reduction of uptake in glutaraldehyde-fixed cells ([4]; differentiated 3T3-L1 cells fixed with glutaraldehyde): 70%
- uptake with Hexarelin (CD36 specific ligand) ([4]; hexarelin 12.5 μM, images at 3 hours): significantly inhibited by Hexarelin
- uptake with triglyceride competition [4]: significantly reduced by triglyceride
